Laboratory results published in PMC8020795 (Proceedings of the National Academy of Sciences of the …, 2021).

How the values were obtained:
[1] = tested on: orthotopic HCA-1 tumors; test: Orthotopic HCA-1 HCC model; assay type: in vivo, C3H mice; details: treatment alone; for Effect on tumor growth: 15 mg/kg/d SC minipump 14 d
Protocol: (§1) In vivo hepatocellular carcinoma treatment studies […]
(§2) mouse PD-1 (200 µg/mouse; BioXcell, BE0146). The therapeutic efficacy and the changes in immune cells were analyzed after two weeks of treatment. The tumor volume was calculated with the following formula: volume = width × length × height/2. […]
Hematoxylin and Eosin staining
Lung tissue was cut into small pieces and fixed in 4% PFA (in PBS) overnight before being embedded in paraffin wax. The sections were then stained with hematoxylin and eosin (H&E) and observed with an inverted microscope (IX83, Olympus, Japan).
HCA-1 tumor-bearing mice were anesthetized, perfused via intracardiac injection with PBS and then sacrificed. Tumor tissues were collected and harvested in enzyme-containing DMEM cell culture medium (1.5 mg/mL of collagenase type 1A and hyaluronidase; Sigma).
The tissues were cut and ground into smaller pieces and then digested for 1 h at 37 °C to form suspensions of single tumor cells. The suspensions were filtered through a 70-µm cell strainer (Corning, Manassas, VA), and the cells were then incubated with rat anti-mouse CD16/CD32 mAbs to block Fc receptors. After washing 3 times and resuspending in cold flow buffer (1% BSA, 0.1% NaN3 in PBS), the single-cell suspensions were incubated with monoclonal anti-mouse F4/80-PE (eBiosciences, San Diego, CA), 7-AAD, CD3e-APC, CD8a-PE-Cy7, CD45-FITC, CD4-PE (BD Biosciences, East Rutherford, NJ), CD86-APC-

[2] = tested on: HCA-1 cells; test: Western blot of phospho-ERK and phospho-AKT after CXCL12 stimulation; assay type: cell-based, murine
Protocol: (§3) Western blotting was conducted by following standard procedures. HCA-1 or JHH-7 cells (10^5 cells per well) were seeded in 12-well plates (Costar, IL), incubated for 12 h and […]
(§4) containing (100 ng/mL) serum-free medium. After 24 h, the cells were lysed in RIPA buffer on ice for 30 min, and samples were collected and loaded with 4× Laemmli Sample buffer (Bio-Rad, Hercules, CA). The samples were separated on a 10% SDS-PAGE gels and transferred to PVDF membranes. After blocking with skim milk for 1 h, the membranes were incubated at 4°C overnight with primary antibodies against p -AKT, AKT, p-ERK, ERK (Cell Signaling, Danvers, MA) or β-actin (Sigma-Aldrich, St. Louis, MO) before incubation with HRP-conjugated secondary antibodies (Antibodies Inc., Davis, CA) for 1 h. […]
(§5) Total RNA was extracted from HCA-1 cells using the RNeasy Mini Kit (Qiagen, CA, USA). cDNAs were synthesized using the High-Capicity cDNA Reverse Transcription Kit […]
(§6) Biosystems, CA, USA) on a QPCR System. The comparative threshold cycle method was used to calculate fold change in gene expression, which was normalized to β-actin as a […]

[3] = tested on: JHH-7 cells; test: as above; assay type: cell-based, human
Protocol: as §3, §4, §5, §6

[4] = target: CXCR4 (Homo sapiens, UniProt P61073); design: expressed in transfected cells; host or cells: HEK293T; details: screening hit; read-out: IC50 (binding affinity toward CXCR4 receptors); cited from earlier work
Chain of CXCR4 (P61073 whole entry): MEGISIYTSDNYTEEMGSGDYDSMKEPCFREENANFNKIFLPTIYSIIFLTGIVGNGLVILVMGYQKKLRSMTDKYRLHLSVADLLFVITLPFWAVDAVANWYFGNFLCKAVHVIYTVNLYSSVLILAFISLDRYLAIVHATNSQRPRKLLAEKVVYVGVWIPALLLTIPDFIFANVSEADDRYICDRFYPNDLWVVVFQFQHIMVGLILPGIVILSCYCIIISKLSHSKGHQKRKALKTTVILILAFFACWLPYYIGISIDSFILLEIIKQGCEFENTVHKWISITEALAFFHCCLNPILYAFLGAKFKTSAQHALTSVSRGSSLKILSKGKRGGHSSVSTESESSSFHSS

[5] = Pharmacokinetics after SC administration; details: 6 mg/kg
Protocol: Pharmacokinetics and toxicological studies
Male C57BL/6 mice, each weighing 23.4–25.4 g, were quarantined for 1 week before drug treatment. Compounds dissolved in 100% saline were individually given to mice (n = 3) subcutaneously (6 mg/kg; nonfasted mice). Blood samples were collected via cardiac puncture at defined time points (0 (immediately before dosing), 0.03, 0.08, 0.25, 0.5, 1, 2, and 4 h after dosing) and then stored at −80 °C. The volume of the dosing solution given was 100 µL for each mouse. The plasma samples were analyzed by liquid chromatography– tandem mass spectrometry (LC–MS/MS), and the data were calculated by a standard noncompartmental method using the Kinetica software program (InnaPhase). […]

[6] = Metabolic stability in liver microsomes; assay type: in vitro ADME; details: mouse, rat, dog, and human
Excerpt: Figure S4. The metabolic stabilities of BPRCX807 in liver microsomes. BPRCX807 is […]

[7] = tested on: orthotopic JHH-7 tumors; test: Orthotopic JHH-7 HCC model; assay type: in vivo, nude mice; details: treatment alone, 15 mg/kg/d SC minipump 14 d
Protocol: as §1, §2

[8] = SC, mice, n = 3
[9] = target: T1, hERG (human K+ channel) (Homo sapiens, UniProt Q12809); test: hERG patch-clamp assay (hERG-CHO, automated patch-clamp); assay type: cell-based
T1 construct: host or cells: CHO (hERG-CHO)
T1 sequence (Q12809 whole entry): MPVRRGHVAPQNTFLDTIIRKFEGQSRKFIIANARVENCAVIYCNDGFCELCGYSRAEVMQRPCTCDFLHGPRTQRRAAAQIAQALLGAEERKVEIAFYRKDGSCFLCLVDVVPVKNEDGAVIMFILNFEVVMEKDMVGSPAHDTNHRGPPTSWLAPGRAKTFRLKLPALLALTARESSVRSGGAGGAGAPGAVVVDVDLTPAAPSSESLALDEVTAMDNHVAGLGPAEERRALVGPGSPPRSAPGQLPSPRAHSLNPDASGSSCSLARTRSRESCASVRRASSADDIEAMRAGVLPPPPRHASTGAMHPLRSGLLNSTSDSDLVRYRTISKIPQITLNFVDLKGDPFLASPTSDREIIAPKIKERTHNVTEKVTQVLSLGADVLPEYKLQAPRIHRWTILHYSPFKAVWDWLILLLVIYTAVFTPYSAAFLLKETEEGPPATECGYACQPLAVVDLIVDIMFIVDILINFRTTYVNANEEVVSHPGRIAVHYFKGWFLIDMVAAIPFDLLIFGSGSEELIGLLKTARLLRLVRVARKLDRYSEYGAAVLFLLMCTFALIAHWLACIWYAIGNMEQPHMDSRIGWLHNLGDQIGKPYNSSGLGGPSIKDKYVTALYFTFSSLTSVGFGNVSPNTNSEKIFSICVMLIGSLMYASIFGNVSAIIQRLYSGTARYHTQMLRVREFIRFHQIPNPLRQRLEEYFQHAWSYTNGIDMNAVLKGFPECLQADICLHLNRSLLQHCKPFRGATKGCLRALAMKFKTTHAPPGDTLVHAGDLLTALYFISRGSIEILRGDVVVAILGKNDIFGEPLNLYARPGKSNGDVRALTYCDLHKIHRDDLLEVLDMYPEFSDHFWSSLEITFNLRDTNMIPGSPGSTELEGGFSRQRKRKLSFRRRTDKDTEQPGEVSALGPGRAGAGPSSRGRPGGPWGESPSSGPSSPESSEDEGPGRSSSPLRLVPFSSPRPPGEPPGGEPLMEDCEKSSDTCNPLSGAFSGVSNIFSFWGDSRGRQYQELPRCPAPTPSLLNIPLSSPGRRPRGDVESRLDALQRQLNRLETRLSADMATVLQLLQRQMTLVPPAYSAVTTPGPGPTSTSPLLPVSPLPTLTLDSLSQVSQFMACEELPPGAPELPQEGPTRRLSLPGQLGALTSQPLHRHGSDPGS
Excerpt: page 16: Table: List of genes examined by real-time PCR and the primer sequences used. Genes Forward primers Reverse primers Slug [NT] Fn1 [NT] Cdh2 […] Foxc2 [NT] Zeb1 [NT] Zeb2 [NT] Twist1 [NT] Cdh1 [NT] Mta3 [NT] Cldn3 [NT] Cldn5 [NT] β-actin […] [NT] Off-target standard assays Methods employed in this study have been adapted from the scientific literature to maximize reliability and reproducibility. Reference standards were run as an integral part of each assay to ensure the validity of the results obtained. Radioligand binding Assays were performed under conditions described in the accompanying "Methods" section of this report by Eurofins Panlabs, Inc (Taipei, Taiwan, ROC). hERG patch-clamp assay BPRCX807 were tested in the hERG (hERG-CHO, automated patch-clamp) assay and determined at Eurofins Panlabs (Missouri, USA). The experiment was accepted in accordance with Eurofins validation Standard Operating Procedure. Selectivity Screening of various chemokine receptors The results were performed by Eurofins DiscoverX (Fremont, California, USA). The S15

[10] = male, C57BL/6, mouse, in vivo, sc

CNC(=O)c1cc(Oc2ccc(NC(=O)Nc3ccc(Cl)c(C(F)(F)F)c3)cc2)ccn1 [sorafenib, reference compound]
F4/80+ TAMs infiltration into tumor (flow cytometry) [1]: substantially increased
Intratumoral mean vessel density (MVD, CD31+ staining) ([1]; day 24): significantly decrease intratumoral MVD
Lung metastasis (number of lung nodules) ([1]; day 24): barely reduced

NCCCCN(Cc1nc2ccccc2[nH]1)[C@H]1CCCc2cccnc21 [AMD11070, reference compound]
CXCL12-mediated cell signaling (phospho-ERK, phospho-AKT) [2]: moderately inhibited
CXCL12-mediated cell signaling (phospho-ERK, phospho-AKT) [3]: moderately inhibited

CCN(CC)CCCC(C)Nc1cc(/C=C/c2ccc([N+](=O)[O-])cc2)nc2cc(OC)ccc12 (centres unmarked) [CSV18742]
IC50 [4]: 2.13 ± 0.11 µM

c1cc(CN2CCCNCCNCCCNCC2)ccc1CN1CCCNCCNCCCNCC1 [AMD3100, reference compound]
AUC0–4 h ([5]; SC, mice, n = 3): 7,152 ± 135 ng/mL·h
Cmax [5, 10]: 6200 ng/mL
half-life [5, 10]: 1 h
Metabolic stability in liver microsomes [6]: Stable
Effect on tumor growth [1]: no significant effect on tumor growth
Lung metastasis (number of lung nodules) ([1]; day 24): reduced
Effect on tumor growth [7]: no significant effect on tumor growth
Maximum tolerated dose [8]: 15 mg/kg
IC50 [9]: > 100 µM

Cc1cc(NC2CCN(C(=O)CCNCC(=O)O)CC2)nc(NCc2cn(CCCNCCCNC3CCCCC3)nn2)n1 [BPRCX714, reference compound]
Effect on tumor growth [1]: no significant effect on tumor growth
Effect on tumor growth [7]: no significant effect on tumor growth
